Several values for one entry are separate records, joined by “and”; a condition that tells them apart may be missing. Identical values can stand only once.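 Five compound concentrations were applied to cells in 96-well plates for 48 hours; endpoints were derived by simple linear interpolation of the resulting dose-response curve. GI50 is the concentration that inhibits growth by half. TGI: concentration producing complete growth inhibition.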
Legend:
Test in all cases: growth of human tumour cells (NCI), 48 h
IGROV1 ovarian = test system: IGROV1 ovarian
MCF7 breast = test system: MCF7 breast
OVCAR-4 ovarian = test system: OVCAR-4 ovarian
TK-10 renal = test system: TK-10 renal
DLD-1 colon = test system: DLD-1 colon
DMS 114 small cell lung = test system: DMS 114 small cell lung
HOP-18 NSCLC = test system: HOP-18 NSCLC
KM20L2 colon = test system: KM20L2 colon
LXFL 529 NSCLC = test system: LXFL 529 NSCLC
M19-MEL melanoma = test system: M19-MEL melanoma
SNB-78 CNS = test system: SNB-78 CNS
XF 498 CNS = test system: XF 498 CNS
DMS 273 small cell lung = test system: DMS 273 small cell lung

## CN(C)C(c1ccccc1)C1COC2Cc3ccccc3C1O2 (stereo not drawn)
IGROV1 ovarian
  TGI: > 100 µM
MCF7 breast
  GI50: 84 µM and 23.6 µM
  TGI: > 100 µM
OVCAR-4 ovarian
  TGI: > 100 µM
TK-10 renal
  TGI: > 100 µM

## COc1ccc(Cc2nnc(Nc3ccc(Br)cc3)[nH]c2=O)cc1OC
IGROV1 ovarian
  TGI: > 100 µM
MCF7 breast
  TGI: > 100 µM
OVCAR-4 ovarian
  TGI: > 100 µM
TK-10 renal
  TGI: > 100 µM

## CN1C(=O)C2(C=CC(O)CC2)c2ccccc21 (stereo not drawn)
IGROV1 ovarian
  TGI: > 100 µM
MCF7 breast
  TGI: > 100 µM
OVCAR-4 ovarian
  TGI: > 100 µM
TK-10 renal
  TGI: > 100 µM

## O=C(Nc1ccc2[nH]c(C(=O)N3CC(CCl)c4c3cc([N+](=O)[O-])c3ccccc43)cc2c1)Nc1ccc2[nH]c(C(=O)N3CC(CCl)c4c3cc([N+](=O)[O-])c3ccccc43)cc2c1 (stereo not drawn)
MCF7 breast
  TGI: > 100 µM
OVCAR-4 ovarian
  TGI: > 100 µM
TK-10 renal
  TGI: > 100 µM

## CC1(C)Cc2nc3c(cc2C(=O)C1C=N/C(C#N)=C(\N)C#N)C(=O)C(C=N/C(C#N)=C(\N)C#N)C(C)(C)C3 (stereo not drawn)
IGROV1 ovarian
  TGI: 3.56 µM
MCF7 breast
  TGI: 6.23 µM
OVCAR-4 ovarian
  TGI: > 100 µM
TK-10 renal
  TGI: 18 µM

## CC(=O)Nc1c(C)cc2c(nc3n2CCC3OC(C)=O)c1[N+](=O)[O-] (stereo not drawn)
IGROV1 ovarian
  TGI: > 100 µM
MCF7 breast
  TGI: > 100 µM
OVCAR-4 ovarian
  TGI: > 100 µM

## O=C(CN1CCOCC1)c1ccc2c(c1)oc(=O)n2CCN1CCOCC1
IGROV1 ovarian
  TGI: > 100 µM
MCF7 breast
  TGI: > 100 µM

## O=c1[nH]nc(-c2ccccc2)n1/N=C/c1cccs1
MCF7 breast
  TGI: > 100 µM
OVCAR-4 ovarian
  TGI: 62 µM

## N#CC(=N)c1ncn(-c2ccc(N)cc2)c1N
IGROV1 ovarian
  TGI: > 100 µM
MCF7 breast
  TGI: > 100 µM
OVCAR-4 ovarian
  TGI: > 100 µM
TK-10 renal
  TGI: > 100 µM

## C/C=C(\C)C(O)C(C)C(O)C/C=C(C)/C=C(\C)C/C(C)=C/C/C=C(\C)C(O)C(C)c1ccc(CCC)c(=O)o1 (stereo not drawn)
IGROV1 ovarian
  TGI: 32.8 µM
MCF7 breast
  TGI: 22.9 µM
OVCAR-4 ovarian
  TGI: 65.4 µM
TK-10 renal
  TGI: 71.8 µM

## CC(C)=CCC/C(C)=C/CC/C(C)=C/CC/C(C)=C/CC/C(C)=C/CC/C(C)=C/CC/C(C)=C/CC/C(C)=C/CC/C(C)=C/CO
IGROV1 ovarian
  TGI: > 100 µM
MCF7 breast
  TGI: > 100 µM
OVCAR-4 ovarian
  TGI: > 100 µM
TK-10 renal
  TGI: > 100 µM

## S=C1CCSc2c(ccc3ccccc23)N1
IGROV1 ovarian
  TGI: > 100 µM
MCF7 breast
  TGI: > 100 µM
OVCAR-4 ovarian
  TGI: > 100 µM
TK-10 renal
  TGI: > 100 µM

## CC(C)N=C(N)NC#N
DLD-1 colon
  TGI: > 100 µM
DMS 114 small cell lung
  TGI: > 100 µM
HOP-18 NSCLC
  TGI: > 100 µM
IGROV1 ovarian
  TGI: > 100 µM
KM20L2 colon
  TGI: > 100 µM
LXFL 529 NSCLC
  TGI: > 100 µM
M19-MEL melanoma
  TGI: > 100 µM
OVCAR-4 ovarian
  TGI: > 100 µM
SNB-78 CNS
  TGI: > 100 µM
XF 498 CNS
  TGI: > 100 µM

## CC(=O)NC1(c2cc3ccccc3s2)CCCCCC1
IGROV1 ovarian
  TGI: > 100 µM
MCF7 breast
  TGI: > 100 µM
OVCAR-4 ovarian
  TGI: > 100 µM
TK-10 renal
  TGI: > 100 µM

## C/C(CC(O)(/C=N/O)c1ccccc1)=N/O (stereo not drawn)
IGROV1 ovarian
  TGI: > 100 µM
MCF7 breast
  TGI: > 100 µM
OVCAR-4 ovarian
  TGI: > 100 µM
TK-10 renal
  TGI: > 100 µM

## N#CC(Cc1ccccc1)N(CCC1=CCCCC1)Cc1ccccc1 (stereo not drawn)
IGROV1 ovarian
  TGI: > 100 µM
MCF7 breast
  TGI: > 100 µM
OVCAR-4 ovarian
  TGI: > 100 µM
TK-10 renal
  TGI: > 100 µM

## CN(/N=C/c1cccc2cccnc12)c1ccc(Cl)cc1[N+](=O)[O-]
IGROV1 ovarian
  TGI: > 100 µM
MCF7 breast
  TGI: > 100 µM
OVCAR-4 ovarian
  TGI: > 100 µM
TK-10 renal
  TGI: > 100 µM

## Cc1ccc(/C(O)=C/C(=O)C(=O)NC23CC4CC(CC(C4)C2)C3)cc1
MCF7 breast
  TGI: > 10 µM
OVCAR-4 ovarian
  TGI: > 10 µM
TK-10 renal
  TGI: > 10 µM

## N#Cc1c(N2CCC(O)C2)c2ccccc2n2c1nc1ccccc12 (stereo not drawn)
IGROV1 ovarian
  TGI: > 100 µM
MCF7 breast
  TGI: > 100 µM
OVCAR-4 ovarian
  TGI: > 100 µM
TK-10 renal
  TGI: > 100 µM

## COc1cc(-c2cc(=O)c3c(O)c(CC=C(C)C)c(O)cc3o2)ccc1O
IGROV1 ovarian
  TGI: > 50 µM
MCF7 breast
  TGI: > 50 µM
OVCAR-4 ovarian
  TGI: 43.6 µM
TK-10 renal
  TGI: > 50 µM

## Cn1c(=O)c2c(nc3n2CCCC(=O)N3CC(O)CCl)n(C)c1=O (stereo not drawn)
IGROV1 ovarian
  TGI: > 100 µM
MCF7 breast
  TGI: > 100 µM
OVCAR-4 ovarian
  TGI: > 100 µM
TK-10 renal
  TGI: > 100 µM

## COC1CN(C)C(=Nc2cccc3ccccc23)S1 (stereo not drawn)
IGROV1 ovarian
  TGI: > 10 µM
MCF7 breast
  TGI: > 10 µM
OVCAR-4 ovarian
  TGI: > 10 µM
TK-10 renal
  TGI: > 10 µM

## CC1SCc2nc3ccccc3n21 (stereo not drawn)
IGROV1 ovarian
  TGI: > 100 µM
MCF7 breast
  TGI: > 100 µM
OVCAR-4 ovarian
  TGI: > 100 µM
TK-10 renal
  TGI: > 100 µM

## COc1cc(/C=N/n2c(-c3ccccc3)nn(C(C)=O)c2=O)cc(OC)c1OC
IGROV1 ovarian
  TGI: > 100 µM
MCF7 breast
  TGI: > 37.9 µM
OVCAR-4 ovarian
  TGI: > 100 µM
TK-10 renal
  TGI: 31.8 µM

## COc1ccccc1C1ON=C(c2ccc([N+](=O)[O-])cc2)N1C12CC3CC(CC(C3)C1)C2 (stereo not drawn)
IGROV1 ovarian
  TGI: > 100 µM
MCF7 breast
  TGI: > 100 µM
OVCAR-4 ovarian
  TGI: > 100 µM
TK-10 renal
  TGI: > 100 µM

## COC(O)C(=O)c1ccc2c(c1)CC1(C2)Cc2cc3c(cc2C1=O)CCC3 (stereo not drawn)
IGROV1 ovarian
  TGI: 32.8 µM
MCF7 breast
  TGI: 39.6 µM
OVCAR-4 ovarian
  TGI: 30.4 µM
TK-10 renal
  TGI: 36.2 µM

## Cc1c(N2CCN(C)CC2)nc2ccc(Cl)cc2c1-c1ccccc1
DMS 114 small cell lung
  TGI: 31 µM
DMS 273 small cell lung
  TGI: 32.1 µM
KM20L2 colon
  TGI: 31.2 µM
LXFL 529 NSCLC
  TGI: 31.7 µM
OVCAR-4 ovarian
  TGI: 36.9 µM
SNB-78 CNS
  TGI: 39.8 µM
TK-10 renal
  TGI: > 10 µM

## O=C1CSC(c2ccccc2[N+](=O)[O-])N1c1ccc(-c2ccc(-n3c(-c4ccccc4)nc4ccccc4c3=O)cc2)cc1 (stereo not drawn)
IGROV1 ovarian
  TGI: > 100 µM
MCF7 breast
  TGI: > 100 µM
OVCAR-4 ovarian
  TGI: > 100 µM
TK-10 renal
  TGI: > 100 µM

## CC(=O)Nc1ccc2c3c(cc(O)c2c1)N(C(=O)CCCCCCC(=O)N1CC(CCl)c2c1cc(O)c1cc(NC(C)=O)ccc21)CC3CCl (stereo not drawn)
IGROV1 ovarian
  TGI: 0.499 µM
MCF7 breast
  TGI: 0.0472 µM
OVCAR-4 ovarian
  TGI: > 100 µM
TK-10 renal
  TGI: 0.0702 µM

## CCOC(=O)C(Cc1ccc(OC(=O)c2ccc(OC)cc2)cc1)NC(=O)C(F)(F)F (stereo not drawn)
IGROV1 ovarian
  TGI: > 100 µM
MCF7 breast
  TGI: > 100 µM
OVCAR-4 ovarian
  TGI: > 100 µM
TK-10 renal
  TGI: > 100 µM

## CC(=O)OCC1OC(Nn2c(=O)[nH]c3ccccc3c2=O)C(OC(C)=O)C(OC(C)=O)C1OC(C)=O (stereo not drawn)
IGROV1 ovarian
  TGI: > 100 µM
MCF7 breast
  TGI: > 100 µM

## Cc1cc(Cc2cc(C)c(NC(=O)C(=O)C3CCC4=C(SC5C=CC=CC5N4)C3=O)c(C(C)C)c2)cc(C(C)C)c1NC(=O)C(=O)C1CCC2=C(SC3C=CC=CC3N2)C1=O (stereo not drawn)
IGROV1 ovarian
  TGI: > 100 µM
MCF7 breast
  TGI: > 100 µM
OVCAR-4 ovarian
  TGI: > 100 µM
TK-10 renal
  TGI: > 100 µM

## O=c1[nH]nc(Cc2c[nH]c3ccccc23)o1
IGROV1 ovarian
  TGI: > 100 µM
MCF7 breast
  TGI: > 100 µM
OVCAR-4 ovarian
  TGI: > 100 µM
TK-10 renal
  TGI: > 100 µM

From PubChem BioAssay (NCI)
